Source: patent publication EP0299528A1, “Doxorubicin hydrochloride nonaqueous solution” (Bristol-Myers Squibb Company, priority 1987, dated 1989)
Structures can show the parent of a compound that is named as a salt. Where two headings read alike, the source gives them in different places. One block for each compound: values may come before it.

Columns and labels:
[1] = Procedure: The pH is measured on solutions diluted to 1 mg/ml with water or 70% water/30% acetonitrile (v/v). […] An amount of citric acid is used which will provide a solution pH in the range of about 3-5, preferably 3-4.5.
We have tested a number of antioxidants including α-tocopherol, tert-butylhydroquinone (TBHQ), sodium formaldehyde bisulfite, butylated hydroxy anisole (BHA), butylated hydroxy toluene (BHT), sodium bisulfite and propyl gallate. […] Generally an amount of α-tocopherol, tert-butylhydroquinone or sodium formaldehyde bisulfite is employed in the range of about 0.1-2 mg/ml. The preferred concentration of antioxidant is about 0.5-2 mg/ml with about 2 mg/ml being most preferred.
Glass vials may conveniently be used as the container.

[2] = cited from earlier work; for reconstituted solution remains stable: in 0.9% NaCl solution, Ketchum, et al. 1981
[3] = cited from earlier work
[4] = Solubility of doxorubicin HCl in nonaqueous solvents; type: physicochemical; conditions: organic solvent or mixture

Compound: CCCCCCCC/C=C\CCCCCCCC(=O)OCCOCC(OCCO)C1OCC(OCCO)C1OCCO (stereo not drawn) [Tween-80]
- effect of additive on stability of the solutions [1]: did not improve stability

Compound: O=C(O)CC(O)(CC(=O)O)C(=O)O [citric acid]
- stability of the solutions with the acid used for pH control ([1]; acid used to reach a pH range of about 3-5): optimum stability

Compound: COc1cccc2c1C(=O)c1c(O)c3c(c(O)c1C2=O)C[C@@](O)(C(=O)CO)C[C@@H]3O[C@H]1C[C@H](N)[C@H](O)[C@H](C)O1 [doxorubicin HCl, doxorubicin hydrochloride]
- chemical stability of solutions ([1]; glycerol formal, 2-pyrrolidinone and 1-methyl-2-pyrrolidinone): chemically unstable
- potency loss ([1]; short-term (0.5-1 hour) warming (60-80°C) in propylene glycol, 1,2-dihydroxybutane or 1,3-dihydroxypropane): no potency loss
- physical stability of the solution on storage ([1]; stored at 4°C to -20°C, seeding with crystalline doxorubicin HCl does not affect crystallization): remains in solution
- reconstituted solution remains stable ([2]; 5°C): seven
- reconstituted solution remains stable ([2]; room temperature): seven
- reconstituted solutions stable (≦10% potency loss) ([2]; refrigerated at 4°C, Hoffman, et al. 1979): up to six
- pH of maximum stability ([3]; Tris or phosphate buffers using HCl to adjust pH, Janssen, et al. 1985): 4
- pH of optimum stability ([3]; reconstitution solvent 5% Dextrose Injection, USP, Poochikian, et al. 1981): ~4.5
- solubility ([4]; glycerol formal, pyrrolidinones, glycerol formal, 2-pyrrolidinone and 1-methyl-2-pyrrolidinone, read-out: concentration of solutions produced): ≥ 5000 µg/mL
- solubility ([4]; glycols with 5-10% water, propylene glycol, 1,2-dihydroxybutane, 1,3-dihydroxypropane with addition of 5-10% (v/v) water, read-out: solubility): ~20000 µg/mL
- solubility ([4]; nonaqueous solvents, same three solvents after short-term (0.5-1 hour) warming (60-80°C) with vigorous stirring, read-out: solubility): ~10000 µg/mL
- solubility ([4]; nonaqueous solvents, with heating, polyethylene glycols, ethanol, benzyl alcohol, dimethylisosorbide, ethyl lactate, Solketol, Cremophors, Pluronics, read-out: solubility): < 5000 µg/mL
- solubility ([4]; propylene glycol, 1,2-dihydroxybutane, 1,3-dihydroxypropane, room temperature, in propylene glycol, 1,2-dihydroxybutane and 1,3-dihydroxypropane, read-out: solubility): < 5000 µg/mL

More lines, now with the values ahead:

- stability of the solutions with the antioxidant [1]: resulted in the desired stability
Compound: O=S(=O)(O)CO [sodium formaldehyde bisulfite]

- stability of the solutions with the antioxidant ([1]; elevated temperatures as well as room temperature (25°C) or below): resulted in the desired stability
Compound: CC(C)(C)c1cc(O)ccc1O [tert-butylhydroquinone]

- stability of the solutions with the antioxidant [1]: resulted in the desired stability
Compound: Cc1c(C)c2c(c(C)c1O)CCC(C)(CCCC(C)CCCC(C)CCCC(C)C)O2 (stereo not drawn) [α-tocopherol]
